US11141490B2, “Antibody-drug conjugates based on gold compounds” (Research Foundation of the City University of New York, priority 2018, dated 2021)
Several values for one entry are separate records, joined by “and”; a condition that tells them apart may be missing. Equal values may be shown once.

What was measured:
MCF-7 cells = experiment: Cell viability assay (PrestoBlue), MCF-7; type: cell-based, human; settings: MCF-7, 72 h
Method: (§1) Cell viability assays were carried out to investigate the anti-proliferative effect of the AGCs. […] Auranofin was used for comparative purposes. […] Cells were incubated with the compounds for 72 hours and viability was assessed with Presto Blue. […] As mentioned before, linkers bring considerable advantages in terms of ADC stability.
(§2) Cell viability analysis for all compounds and AGCs described.
(§3) MCF7, MCF10A and BT-474 were obtained from the American Type Culture Collection (ATCC) (Manassas, Va.) and cultured in Dulbecco's modified Eagle's medium (DMEM) (Mediatech) supplemented with 10% FBS, 1% NEAA and 1% penicillin-streptomycin (MCF7 AND MCF1 OA) or DME HG/F12K, NEAA, 2 mM glutamine, 10% FBS/PS and incubated at 37° C. and 5% CO2 in a humidified incubator.
(§4) After 72 h, cell viability was determined by means of the colorimetric cell viability assay PrestoBlue (Invitrogen, Carlsbad, Calif.) according to the manufacturer's intructions. EC50 were fit using GraphPad Prism 7 to best match the experimental data.
(§5) Tables 3 and Table 4 show EC50 Values (μM) in MCF7, MCF10A and BT474 cell lines determined with [AuCl(PPh3)] (DMF), [Au(mba)(PPh3)]

BT-474 cells = experiment: Cell viability assay (PrestoBlue), BT-474; type: cell-based, human; settings: BT-474, 72 h
Method: as §1, §2, §3, §4, §5

MCF-10A cells = experiment: Cell viability assay (PrestoBlue), MCF-10A; type: cell-based, human; settings: MCF-10A non-cancerous breast cell line, 72 h
Method: as §1, §2, §3, §4, §5

[1] = humans, rheumatoid arthritis medication; cited from earlier work
[2] = DMSO solution at room temperature; cited from earlier work

| Compound | EC50 (MCF-7 cells) | EC50 (BT-474 cells) | EC50 (MCF-10A cells) | patients affected by most severe side effects (diarrhea and rashes) [1] | time stable in solution [2] |
| --- | --- | --- | --- | --- | --- |
| [Au(mba)(PPh3)] [reference compound] | 2.4 µM and 2.36 µM | 3.51 ± 0.16 µM | 5.52 ± 0.36 µM | – | – |
| [Cl][Au].c1ccc(P(c2ccccc2)c2ccccc2)cc1 [[AuCl(PPh3)], reference compound] | 3.6 µM and 3.57 µM | 3.32 ± 0.1 µM | 18.9 ± 1.3 µM | – | – |
| CC[P](CC)(CC)=[Au][S][C@@H]1O[C@H](COC(C)=O)[C@@H](OC(C)=O)[C@H](OC(C)=O)[C@H]1OC(C)=O [AF, [(2R,3R,4S,5R,6S)-3,4,5-tris(acetyloxy)-6-{[(triethyl-λ5-phosphanylidene)aurio]sulfanyl}-oxan-2-yl]methyl acetate] | – | – | – | 26-40% | > 72 h |
